# Reference: PubChem BioAssay (NCI)
#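 Test compounds were applied to cells in 96-well plates for 48 hours at 5 doses. Abbreviation: GI50, concentration required for 50% inhibition of growth. TGI is the concentration that stops growth completely.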
# Experiments:
# Assay in all cases: growth of human tumour cells (NCI), 48 h
# [1] = system: M14 melanoma
# [2] = system: SK-MEL-2 melanoma
# [3] = system: TK-10 renal
# [4] = system: SF-268 CNS
# [5] = system: MOLT-4 leukemia
# [6] = system: HCC-2998 colon
# [7] = system: UACC-257 melanoma
# [8] = system: NCI-H522 lung
# [9] = system: RXF 393 renal
# [10] = system: A549 NSCLC
# [11] = system: 786-0 renal
# [12] = system: UACC-62 melanoma
# [13] = system: OVCAR-5 ovarian
# [14] = system: HCT-116 colon
# [15] = system: MCF7 breast
# [16] = system: HOP-62 NSCLC
# [17] = system: SK-OV-3 ovarian
# [18] = system: NCI-H226 lung
# [19] = system: NCI-H460 lung
# [20] = system: OVCAR-8 ovarian
# [21] = system: MALME-3M melanoma
# [22] = system: HS 578T breast
# [23] = system: RPMI-8226 leukemia
# [24] = system: CAKI-1 renal
# [25] = system: MDA-MB-435
# [26] = system: BT-549 breast
# [27] = system: SF-295 CNS
# [28] = system: OVCAR-3 ovarian
# [29] = system: UO-31 renal
# [30] = system: T-47D breast
# [31] = system: OVCAR-4 ovarian
# [32] = system: NCI-H23 lung
# [33] = system: LOX IMVI melanoma
# [34] = system: ACHN renal
# [35] = system: EKVX NSCLC
# [36] = system: A498 renal
# [37] = system: K-562 leukemia
# [38] = system: SF-539 CNS
# [39] = system: DU-145 prostate
# [40] = system: SW-620 colon
# [41] = system: COLO 205 colon
# [42] = system: SK-MEL-5 melanoma
# [43] = system: NCI/ADR-RES ovarian
# [44] = system: PC-3 prostate
# [45] = system: HCT-15 colon
# [46] = system: U251 CNS
# [47] = system: SK-MEL-28 melanoma
# [48] = system: SNB-19 CNS
# [49] = system: IGROV1 ovarian
# [50] = system: HT29 colon
# [51] = system: SR leukemia
# [52] = system: MDA-MB-231 breast
# [53] = system: SN12C renal
# [54] = system: KM12 colon
smiles,measurement,setting,value
Cn1ccc2c3c(Oc4ccc(NC(N)=O)cc4)ccnc3ccc21,GI50,[1],> 100 µM
same,TGI,[1],> 100 µM
same,GI50,[2],> 100 µM
same,TGI,[2],> 100 µM
same,GI50,[3],> 100 µM
same,TGI,[3],> 100 µM
same,GI50,[4],> 100 µM
same,TGI,[4],> 100 µM
same,GI50,[5],> 100 µM
same,TGI,[5],> 100 µM
same,GI50,[6],> 100 µM
same,TGI,[6],> 100 µM
same,GI50,[7],> 100 µM
same,TGI,[7],> 100 µM
same,GI50,[8],> 100 µM
same,TGI,[8],> 100 µM
same,GI50,[9],> 100 µM
same,TGI,[9],> 100 µM
same,GI50,[10],> 100 µM
same,TGI,[10],> 100 µM
same,GI50,[11],> 100 µM
same,TGI,[11],> 100 µM
same,GI50,[12],> 100 µM
same,TGI,[12],> 100 µM
same,GI50,[13],> 100 µM
same,TGI,[13],> 100 µM
same,GI50,[14],> 100 µM
same,TGI,[14],> 100 µM
same,GI50,[15],> 100 µM
same,TGI,[15],> 100 µM
same,GI50,[16],> 100 µM
same,TGI,[16],> 100 µM
same,GI50,[17],> 100 µM
same,TGI,[17],> 100 µM
same,GI50,[18],> 100 µM
same,TGI,[18],> 100 µM
same,GI50,[19],> 100 µM
same,TGI,[19],> 100 µM
same,GI50,[20],> 100 µM
same,TGI,[20],> 100 µM
same,GI50,[21],> 100 µM
same,TGI,[21],> 100 µM
same,GI50,[22],40.1 µM
same,TGI,[22],> 100 µM
same,GI50,[23],> 100 µM
same,TGI,[23],> 100 µM
same,GI50,[24],> 100 µM
same,TGI,[24],> 100 µM
same,GI50,[25],> 100 µM
same,TGI,[25],> 100 µM
same,GI50,[26],> 100 µM
same,TGI,[26],> 100 µM
same,GI50,[27],> 100 µM
same,TGI,[27],> 100 µM
same,GI50,[28],> 100 µM
same,TGI,[28],> 100 µM
same,GI50,[29],> 100 µM
same,TGI,[29],> 100 µM
same,GI50,[30],> 100 µM
same,TGI,[30],> 100 µM
same,GI50,[31],> 100 µM
same,TGI,[31],> 100 µM
same,GI50,[32],> 100 µM
same,TGI,[32],> 100 µM
same,GI50,[33],> 100 µM
same,TGI,[33],> 100 µM
same,GI50,[34],> 100 µM
same,TGI,[34],> 100 µM
same,GI50,[35],> 100 µM
same,TGI,[35],> 100 µM
same,GI50,[36],> 100 µM
same,TGI,[36],> 100 µM
same,GI50,[37],> 100 µM
same,TGI,[37],> 100 µM
same,GI50,[38],> 100 µM
same,TGI,[38],> 100 µM
same,GI50,[39],> 100 µM
same,TGI,[39],> 100 µM
same,GI50,[40],> 100 µM
same,TGI,[40],> 100 µM
same,GI50,[41],> 100 µM
same,TGI,[41],> 100 µM
same,GI50,[42],20.7 µM
same,TGI,[42],> 100 µM
same,GI50,[43],> 100 µM
same,TGI,[43],> 100 µM
same,GI50,[44],> 100 µM
same,TGI,[44],> 100 µM
same,GI50,[45],> 100 µM
same,TGI,[45],> 100 µM
same,GI50,[46],> 100 µM
same,TGI,[46],> 100 µM
same,GI50,[47],> 100 µM
same,TGI,[47],> 100 µM
same,GI50,[48],> 100 µM
same,TGI,[48],> 100 µM
same,GI50,[49],> 100 µM
same,TGI,[49],> 100 µM
same,GI50,[50],> 100 µM
same,TGI,[50],> 100 µM
same,GI50,[51],> 100 µM
same,TGI,[51],> 100 µM
same,GI50,[52],> 100 µM
same,TGI,[52],> 100 µM
same,GI50,[53],> 100 µM
same,TGI,[53],> 100 µM
same,GI50,[54],> 100 µM
same,TGI,[54],> 100 µM
